Patent US8658646B2, “Pyrrolopyrazine kinase inhibitors” (Hoffmann-LaRoche Inc., priority 2011, dated 2014)

Target: T1, JAK3: Recombinant human kinase domain (Homo sapiens, UniProt P52333)
T1 construct: JAK3: Recombinant human kinase domain from Millipore (Cat #14-629) or prepared; purchased Millipore 14-629
Assay: Determination of IC50 of Janus Kinase (JAK) inhibition, radioactive end-point 33P-ATP assay, JAK3
Format: biochemical
Conditions: ATP 1.5 uM, peptide 50 uM, 20 minutes, read-out: JAK3-INHIB-DR/v1~NO ADDITIVE~Enzyme_Conc = 100

T1 sequence (P52333 822-1111 limits assumed): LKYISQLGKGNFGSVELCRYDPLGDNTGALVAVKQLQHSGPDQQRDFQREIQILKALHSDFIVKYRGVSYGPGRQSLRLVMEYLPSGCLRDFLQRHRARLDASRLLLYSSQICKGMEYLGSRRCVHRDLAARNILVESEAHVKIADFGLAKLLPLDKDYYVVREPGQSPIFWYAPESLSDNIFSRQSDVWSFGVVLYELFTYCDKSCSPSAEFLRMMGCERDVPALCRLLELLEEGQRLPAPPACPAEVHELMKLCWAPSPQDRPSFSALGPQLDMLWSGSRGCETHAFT

| Compound | IC50 [nM] |
| --- | --- |
| C[C@@H](NC(=O)c1c[nH]c2ncc(-c3nn(CC(O)CO)c4cc(Cl)ccc34)nc12)C(=O)N1CC(C#N)C1 (stereo partly drawn) [Example I-94, 2-[6-Chloro-1-(2,3-dihydroxy-propyl)-1H-indazol-3-yl]-5H-pyrrolo[2,3-b]pyrazine-7-carboxylic acid [(R)-2-(3-cyano-azetidin-1-yl)-1-methyl-2-oxo-ethyl)-amide] | 12.6 |
| Cn1nc(-c2cnc3[nH]cc(C(=O)N[C@@H](C(=O)N4CCC(C#N)CC4)C(C)(C)C)c3n2)c2ccc(Cl)cc21 [Example I-19, 2-(6-Chloro-1-methyl-1H-indazol-3-yl)-5H-pyrrolo[2,3-b]pyrazine-7-carboxylic acid [(R)-1-(4-cyano-piperidine-1-carbonyl)-2,2-dimethyl-propyl]-amide] | 2.12 |
| C[C@@H](NC(=O)c1c[nH]c2ncc(-c3nn(C)c4cc(Cl)ccc34)nc12)C(=O)N1CCOCC1 [Example I-28, 2-(6-Chloro-1-methyl-1H-indazol-3-yl)-5H-pyrrolo[2,3-b]pyrazine-7-carboxylic acid ((R)-1-methyl-2-morpholin-4-yl-2-oxo-ethyl)-amide] | 84.6 |
| C[C@@H](NC(=O)c1c[nH]c2ncc(-n3cnc4cc(Cl)ccc43)nc12)C(=O)N1CC(C#N)C1 [Example I-225, 2-(5-Chloro-benzoimidazol-1-yl)-5H-pyrrolo[2,3-b]pyrazine-7-carboxylic acid [(R)-2-(3-cyano-azetidin-1-yl)-1-methyl-2-oxo-ethyl]-amide] | 144 |
| CC(C)n1nc(-c2cnc3[nH]cc(C(=O)N[C@H](C)C(=O)N4CC(C#N)C4)c3n2)c2ccc(Cl)cc21 [Example I-91, 2-(6-Chloro-1-isopropyl-1H-indazol-3-yl)-5H-pyrrolo[2,3-b]pyrazine-7-carboxylic acid [(R)-2-(3-cyano-azetidin-1-yl)-1-methyl-2-oxo-ethyl)-amide] | 3.13 |
| COCC(C)NC(=O)c1c[nH]c2ncc(-c3nn(C)c4cc(Cl)ccc34)nc12 (centres unmarked) [Example I-152, 2-(6-Chloro-1-methyl-1H-indazol-3-yl)-5H-pyrrolo[2,3-b]pyrazine-7-carboxylic acid (2-methoxy-1-methyl-ethyl)-amide] | 1.15 |
| C[C@@H](NC(=O)c1c[nH]c2ncc(-c3nn(Cc4ccccn4)c4cc(Cl)ccc34)nc12)C(=O)N1CC(C#N)C1 [Example I-233, 2-(6-Chloro-1-pyridin-2-ylmethyl-1H-indazol-3-yl)-5H-pyrrolo[2,3-b]pyrazine-7-carboxylic acid [(R)-2-(3-cyano-azetidin-1-yl)-1-methyl-2-oxo-ethyl]-amide] | 1.29 |
| N#CC1CCN(C(=O)[C@H](NC(=O)c2c[nH]c3ncc(-n4ncc5cc(Cl)ccc54)nc23)C2CC2)CC1 [Example I-66, 2-(5-Chloro-indazol-1-yl)-5H-pyrrolo[2,3-b]pyrazine-7-carboxylic acid [(R)-2-(4-cyano-piperidin-1-yl)-1-cyclopropyl-2-oxo-ethyl]-amide] | 2.17 |
| COC[C@H](C)NC(=O)c1c[nH]c2ncc(-c3ncn4cc(F)ccc34)nc12 [Example I-41, 2-(6-Fluoro-imidazo[1,5-a]pyridin-1-yl)-5H-pyrrolo[2,3-b]pyrazine-7-carboxylic acid ((S)-2-methoxy-1-methyl-ethyl)-amide] | 0.375 |
| COC[C@H](C)NC(=O)c1c[nH]c2ncc(-c3nn(Cc4cccnc4)c4cc(Cl)ccc34)nc12 [Example I-235, 2-(6-Chloro-1-pyridin-3-ylmethyl-1H-indazol-3-yl)-5H-pyrrolo[2,3-b]pyrazine-7-carboxylic acid ((S)-2-methoxy-1-methyl-ethyl)-amide] | 0.49 |
| COCCn1nc(-c2cnc3[nH]cc(C(=O)N[C@H](C)C(=O)N4CC(C#N)C4)c3n2)c2ccc(Cl)cc21 [Example I-24, 2-[6-Chloro-1-(2-methoxy-ethyl)-1H-indazol-3-yl]-5H-pyrrolo[2,3-b]pyrazine-7-carboxylic acid [(R)-2-(3-cyano-azetidin-1-yl)-1-methyl-2-oxo-ethyl]-amide] | 2.34 |
| CC(COc1ccccc1)NC(=O)c1c[nH]c2ncc(-c3nn(C)c4cc(F)ccc34)nc12 (centres unmarked) [Example I-202, 2-(6-Fluoro-1-methyl-1H-indazol-3-yl)-5H-pyrrolo[2,3-b]pyrazine-7-carboxylic acid (1-methyl-2-phenoxy-ethyl)-amide] | 136 |
| C[C@H](CC(=O)N1CCCC1)NC(=O)c1c[nH]c2ncc(-c3nn(C)c4cc(Cl)ccc34)nc12 [Example I-72, 2-(6-Chloro-1-methyl-1H-indazol-3-yl)-5H-pyrrolo[2,3-b]pyrazine-7-carboxylic acid ((R)-1-methyl-3-oxo-3-pyrrolidin-1-yl-propyl)-amide] | 285 |
| Cn1nc(-c2cnc3[nH]cc(C(=O)N[C@@H]4CCN(Cc5ccccc5)C4)c3n2)c2ccc(F)cc21 [Example I-213, 2-(6-Fluoro-1-methyl-1H-indazol-3-yl)-5H-pyrrolo[2,3-b]pyrazine-7-carboxylic acid ((R)-1-benzyl-pyrrolidin-3-yl)-amide] | 76.1 |
| C[C@@H](NC(=O)c1c[nH]c2ncc(-c3nn(CCCO)c4cc(Cl)ccc34)nc12)C(=O)N1CC(C#N)C1 [Example I-96, 2-[6-Chloro-1-(3-hydroxy-propyl)-1H-indazol-3-yl]-5H-pyrrolo[2,3-b]pyrazine-7-carboxylic acid [(R)-2-(3-cyano-azetidin-1-yl)-1-methyl-2-oxo-ethyl]-amide] | 5.39 |
| Cn1nc(-c2cnc3[nH]cc(C(=O)N[C@@H](C(=O)N4CCC(C#N)CC4)C4CC4)c3n2)c2ccc(C3CC3)cc21 [Example I-9, 2-(6-Cyclopropyl-1-methyl-1H-indazol-3-yl)-5H-pyrrolo[2,3-b]pyrazine-7-carboxylic acid [(R)-2-(4-cyano-piperidin-1-yl)-1-cyclopropyl-2-oxo-ethyl]-amide] | 4.01 |
| C[C@@H](NC(=O)c1c[nH]c2ncc(-c3cnc4ccccn34)nc12)C(=O)N1CC(C#N)C1 [Example I-220, 2-Imidazo[1,2-a]pyridin-3-yl-5H-pyrrolo[2,3-b]pyrazine-7-carboxylic acid [(R)-2-(3-cyano-azetidin-1-yl)-1-methyl-2-oxo-ethyl]-amide] | 2.17 |
| CC(NC(=O)c1c[nH]c2ncc(-c3nn(C)c4cc(F)ccc34)nc12)[C@H]1C[C@@H](C#N)C1 (stereo partly drawn) [Example I-76, 2-(6-Fluoro-1-methyl-1H-indazol-3-yl)-5H-pyrrolo[2,3-b]pyrazine-7-carboxylic acid [1-(cis-3-cyano-cyclobutyl)-ethyl]-amide] | 12.7 |
| Cn1nc(-c2cnc3[nH]cc(C(=O)N[C@@H](C(=O)N4CCC(C#N)CC4)C4CC4)c3n2)c2c1CCCC2 [Example I-10, 2-(1-Methyl-4,5,6,7-tetrahydro-1H-indazol-3-yl)-5H-pyrrolo[2,3-b]pyrazine-7-carboxylic acid [(R)-2-(4-cyano-piperidin-1-yl)-1-cyclopropyl-2-oxo-ethyl]-amide] | 1.51 |
| COC[C@H](C)NC(=O)c1c[nH]c2ncc(-c3nn(CCN(C)C)c4cc(F)ccc34)nc12 [Example I-239, 2-[1-(2-Dimethylamino-ethyl)-6-fluoro-1H-indazol-3-yl]-5H-pyrrolo[2,3-b]pyrazine-7-carboxylic acid ((S)-2-methoxy-1-methyl-ethyl)-amide] | 1.83 |
